Assays:
[1] = 600 mg three times a day for 6 days; cited from earlier work
[2] = cited from earlier work
[3] = Symptomatic treatment of nonproductive cough in 3 volunteer patients in the final phase of a viral infection; type: in vivo, human
Protocol: The efficacy of ibuprofen in the symptomatic treatment of nonproductive cough was determined in 3 volunteer patients in the final phase of a viral infection. For this purpose, the patients received oral administration of 400 or 800 mg of ibuprofen (the daily dose was between 400 and 1200 mg). No other medicaments were taken by the patients during the viral infection.
It was observed after administration of ibuprofen that the number of attacks of coughing was reduced by more than 50% relative to the number of attacks of coughing before administration of ibuprofen.
The effects of ibuprofen declined after 6 to 8 hours and the cough reappeared in the former severity.

[4] = oral 400 or 800 mg ibuprofen, patients' report

CC(C)Cc1ccc(C(C)C(=O)O)cc1 (stereo not drawn) [ibuprofen]
number of coughing episodes compared with placebo [1]: reduction in the number of coughing episodes | symptoms of cough ([2]; 10 mg/kg, 30 children, uncontrolled study): reduction in the symptoms of cough | number of attacks of coughing reduced relative to the number before administration ([3]; oral 400 or 800 mg ibuprofen (daily dose 400-1200 mg), 3 patients): more than 50% | intensity of the urge to cough [3, 4]: reduced | severity of the attacks of coughing [3, 4]: reduced | patients' rest at night ([3]; oral 400 or 800 mg ibuprofen, without additional cough suppressant): possible to improve the patients' rest at night | symptoms of cough after renewed administrations ([3]; subsequent renewed administrations of ibuprofen): again led to the described improvement

CC(=O)Nc1ccc(O)cc1 [paracetamol]
alleviation of the symptoms of cough ([2]; 5 days, paracetamol 10 mg/kg 3x a day vs ibuprofen or nimesulide): greater

CS(=O)(=O)Nc1ccc([N+](=O)[O-])cc1Oc1ccccc1 [nimesulide]
fever-reducing effect ([2]; 5 days, nimesulide 2.5 mg/kg 2x a day vs paracetamol or ibuprofen 10 mg/kg 3x a day): better and faster than that of paracetamol or ibuprofen

From patent US20180125792A1, “NON-STEROIDAL ANTI-INFLAMMATORY DRUGS FOR COUGH” (BAYER CONSUMER CARE AG, priority 2006, published 2018)
